Results on 14 molecules are retold here after patent publication US9102671B2, “Compounds and compositions as TRK inhibitors” (Novartis AG, priority 2011, dated 2015).

The target in series [1] is T1, Ba/F3 cells transformed with human Tel-TrkA (Homo sapiens, UniProt P04629).
T1 construct: expressed in transfected cells; host or cells: luciferase expressing Ba/F3 murine hematopoietic progenitor cell line; the other entry of the earlier key: ETV6 (P41212, Transcription factor ETV6)
The series can be described thus: Ba/F3 cell proliferation, Ba/F3 Tel-TrkA. In kind it is cell-based. To be noted: inhibition of proliferation, 48 hours, Bright-Glo luminescence; read-out: Ba/F3Tel-TrkA. As to the method:
(§1) Test compounds were dissolved in DMSO (10 mM) and transferred into 1.4 mL flat bottom or V-shaped Matrix tubes carrying a unique 2D matrix chip by individual compound hubs. The numbers of these chips were distinctively linked to the individual compound identification numbers. The stock solutions were stored at −20° C. if not used immediately. For the test procedure the vials were defrosted and identified by a scanner whereby a working sheet is generated that guides the subsequent working steps.
(§2) Compound dilutions were made in 384 well plates. This format enabled the assay of maximally 28 individual test compounds at 11 concentrations (single points) including 2 reference compounds. The dilution protocol included the production of pre-dilution plates, master plates and assay plates: • Compound plates: 30 μL of individual compound (10 mM) DMSO solution including reference compound were transferred into columns 1 and 13 of a 384 well plate. 20 μL of DMSO were added to the rest of the wells and the compounds were serially diluted (1:3) by transferring 10 μL from a well in column 1 or 13 to the next well in column 2 or 14 respectively and successively with the help of a Minitrack robot. • Assay plates: Identical assay plates were then prepared by adding 50 nL each of compound dilutions of the compound plates into 384-well “assay plates”. In the following the compounds were mixed with 50 μL of assays components (cells or enzyme) and tested for their inhibitory activity.
(§3) The cell line used is the luciferase expressing Ba/F3 murine hematopoietic progenitor cell line transformed with human Tel-TrkA, Tel-TrkB or Tel-TrkC cDNAs (Ba/F3 EN A/B/C). These cells maintained in RPMI/10% fetal bovine serum (RPMI/FCS) supplemented with penicillin 50 mg/mL, streptomycin 50 mg/mL and L-glutamine 200 mM. Untransformed Ba/F3 cells were similarly maintained with the addition 5 ng/ml of murine recombinant IL3. 50 μl of a Ba/F3 or Ba/F3 EN A/B/C cell suspension were plated in Greiner 384 well microplates (white)) at a density of 2000 cells per well. 50 nl of serially diluted test compound (10-0.0001 mM in DMSO solution) is added to each well. The cells were incubated for 48 hours at 37° C., 5% CO2. 25 μl of Bright Glo® (Promega) luciferase substrate is added to each well. The emited luminiscence is quantified using ViewLux (PerkinElmer). IC50 values were calculated by linear regression analysis of the percentage inhibition of each compound at 11 concentrations.
In certain examples compounds of Formula (I) have IC50 values from 0.1 nM 1 μM. In other examples, compounds of Formula (I) have IC50 values from 0.0001 μM to 0.8 μM. In other examples, compounds of Formula (I) have IC50 values from 0.0001 μM to 0.6 μM. In other examples, compounds of Formula (I) have IC50 values from 0.0001 μM to 0.4 μM. In other examples, compounds of Formula (I) have IC50 values from 0.0001 μM to 0.2 μM. In other examples, compounds of Formula (I) have IC50 values from 0.0001 μM to 0.1 μM. In other examples, compounds of Formula (I) have IC50 values from 0.0001 μM to 0.08 μM. In other examples, compounds of Formula (I) have IC50 values from 0.0001 μM to 0.06 μM. In other examples, compounds of Formula (I) have IC50 values from 0.0001 μM to 0.04 μM. In other examples, compounds of Formula (I) have IC50 values from 0.0001 μM to 0.02 μM. In other examples, compounds of Formula (I) have IC50 values from 0.0001 μM to 0.01 μM. In other examples, compounds of Formula (I) have IC50 values from 0.01 μM to 1 μM.

The test system of series [2] is parental (untransformed) Ba/F3 cells. Kind of series: Ba/F3 cell proliferation, BAF3/WT (parental, IL3). In kind it is cell-based, murine. To be noted: Mus musculus, inhibition of proliferation of parental cells with IL3, 48 hours, Bright-Glo luminescence. As to the method: as §1, §2
Compounds were tested for their ability to inhibit the proliferation of wt Ba/F3 cells and Ba/F3 cells transformed with constitutively expressed luciferase reporter and BCR-ABL or Tel-FMS or other Tel fusion kinases (EGFR, JAK2, ALK, BMX, FGFR3, FGFR4, FGR2, FLT1, FLT3, IGF1R, INSR, KDR, KIT, LCK, LYN, MEK, MET, PDGFRα, PDGFRβ, RET, RON, ROS, SRC, SYK, TIE and TYRO) or BRafV600E. Parental Ba/F3 cells were maintained in media containing recombinant mouse IL3 and the kinase transformed Ba/F3 cells were maintained in media without IL-3. 7.5 nl of compounds were spotted to each well of 1536-well assay plates by Liquid handling System Echo 555 (Labcyte). 700 cells were then plated into each well of the assay plates in 7 uL culture media per well and compounds were tested at 0.17 nM to 10 uM in 3-fold serial dilutions. The cells were then incubated for 48 hours at 37° C. 3 uL of Bright-Glo® (Promega) was added to each well and the plates were read using ViewLux (PerkinElmer).
as §3, with “concentrations. […]” for “concentrations.”

For series [3], the target named is T2, Ba/F3 cells co-expressing full length rTrkA and mNGF (Rattus norvegicus, UniProt P35739).
T2 construct: co-expressing full length rTrkA and mNGF; expressed in transfected cells; host or cells: Ba/F3 murine hematopoietic progenitor cells
T2 sequence (P35739 33-799): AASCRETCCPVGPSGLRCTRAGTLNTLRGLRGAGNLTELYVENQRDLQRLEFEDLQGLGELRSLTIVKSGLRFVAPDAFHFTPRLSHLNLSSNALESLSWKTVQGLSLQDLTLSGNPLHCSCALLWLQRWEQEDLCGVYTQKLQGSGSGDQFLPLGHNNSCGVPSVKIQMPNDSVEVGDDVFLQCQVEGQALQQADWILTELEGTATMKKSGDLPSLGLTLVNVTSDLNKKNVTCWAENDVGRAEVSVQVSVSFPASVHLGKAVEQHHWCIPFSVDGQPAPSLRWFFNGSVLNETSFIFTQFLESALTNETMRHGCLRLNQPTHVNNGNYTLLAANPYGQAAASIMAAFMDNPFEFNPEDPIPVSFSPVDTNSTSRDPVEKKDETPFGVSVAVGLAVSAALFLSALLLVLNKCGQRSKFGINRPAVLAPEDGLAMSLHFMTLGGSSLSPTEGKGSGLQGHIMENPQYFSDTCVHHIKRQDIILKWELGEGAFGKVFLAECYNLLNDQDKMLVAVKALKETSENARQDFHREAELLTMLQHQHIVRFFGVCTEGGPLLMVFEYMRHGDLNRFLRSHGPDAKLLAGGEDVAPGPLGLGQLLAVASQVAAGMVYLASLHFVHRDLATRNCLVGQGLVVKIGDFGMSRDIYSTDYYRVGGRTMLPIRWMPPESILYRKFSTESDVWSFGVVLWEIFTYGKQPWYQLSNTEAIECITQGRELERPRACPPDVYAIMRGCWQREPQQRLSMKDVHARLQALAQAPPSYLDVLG
T2 sequence (P01139 122-241 partner): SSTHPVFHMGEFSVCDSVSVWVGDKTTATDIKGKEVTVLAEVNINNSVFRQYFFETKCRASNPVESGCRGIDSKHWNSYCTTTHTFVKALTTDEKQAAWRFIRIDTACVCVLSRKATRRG
The series can be described thus: Ba/F3 cell proliferation, BaF3/TRKA-NGF. Conditions: inhibition of proliferation, 48 hours, Bright-Glo luminescence. The format is cell-based.

T1 sequence (P04629 510-796 limits assumed): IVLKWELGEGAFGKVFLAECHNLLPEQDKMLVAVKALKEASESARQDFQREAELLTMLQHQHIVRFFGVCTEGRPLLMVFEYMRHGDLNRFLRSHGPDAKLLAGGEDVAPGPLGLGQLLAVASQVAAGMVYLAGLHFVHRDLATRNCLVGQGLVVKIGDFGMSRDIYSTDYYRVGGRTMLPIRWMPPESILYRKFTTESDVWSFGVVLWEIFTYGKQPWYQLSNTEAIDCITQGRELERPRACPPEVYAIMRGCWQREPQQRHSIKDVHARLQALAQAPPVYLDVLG

Take `N#Cc1cc(F)cc([C@H]2C[C@H](F)CN2c2ccn3ncc(C(N)=O)c3c2)c1` [Example X-10, 5-((2R,4S)-2-(3-cyano-5-fluorophenyl)-4-fluoropyrrolidin-1-yl)pyrazolo[1,5-a]pyridine-3-carboxamide]: the melting point – broadly, the temperature, or range, at which the solid turns liquid – is 140 °C (dec.). Moreover, in series [1], the IC50 was found to be 5 nM. The IC50 in series [2] is more than 10000 nM. Also, the IC50 in series [3] worked out at 8 nM.

`O=C(NCCO)c1cnn2ccc(N3C[C@@H](F)C[C@@H]3c3cccc(F)c3)cc12` [Example X-17, 5-[(2R,4S)-4-fluoro-2-(3-fluorophenyl)pyrrolidin-1-yl]-N-(2-hydroxyethyl)pyrazolo[1,5-a]pyridine-3-carboxamide]: the IC50 in series [1] is 9 nM; in series [2], more than 10000 nM; in series [3] it was 14 nM.

Regarding `CC(C)NC(=O)c1ccc(F)cc1C1CC(F)(F)CN1c1ccn2ncc(C(N)=O)c2c1` (stereo not shown) [Example X-18, 5-(4,4-difluoro-2-{5-fluoro-2-[(propan-2-yl)carbamoyl]phenyl}pyrrolidin-1-yl)pyrazolo[1,5-a]pyridine-3-carboxamide], the IC50 is 7 nM in series [1], more than 10000 nM in series [2] and 7 nM in series [3].

With `CCOC(=O)c1cnn2ccc(N3C[C@@H](C#N)C[C@@H]3c3cccc(F)c3)cc12` [Example X-19, ethyl 5-((2R,4S)-4-cyano-2-(3-fluorophenyl)pyrrolidin-1-yl)pyrazolo[1,5-a]pyridine-3-carboxylate], the results for the IC50 in series [1], in series [2] and in series [3] were 7 nM, more than 10000 nM and 7 nM, respectively.

`CCOC(=O)c1cnn2ccc(N3C[C@@H](C(N)=O)C[C@@H]3c3cccc(F)c3)cc12` [Example X-20, ethyl 5-((2R,4S)-4-carbamoyl-2-(3-fluorophenyl)pyrrolidin-1-yl)pyrazolo[1,5-a]pyridine-3-carboxylate]: the results for the IC50 in series [1], in series [2] and in series [3] were 2 nM, more than 10000 nM and 2 nM, respectively.

As to `O=C(Nc1cnn2ccc(N3C[C@@H](F)C[C@@H]3c3cccc(F)c3)cc12)OCc1ccccc1` [Example X-21, benzyl (5-((2R,4S)-4-fluoro-2-(3-fluorophenyl)pyrrolidin-1-yl)pyrazolo[1,5-a]pyridin-3-yl)carbamate], the IC50 was 177 nM in series [1], more than 10000 nM in series [2] and 179 nM in series [3].

With `O=C(Nc1ccccc1)c1cnn2ccc(N3C[C@@H](F)C[C@@H]3c3cccc(F)c3)cc12` [Example X-22, 5-[(2R,4S)-4-fluoro-2-(3-fluorophenyl)pyrrolidin-1-yl]-N-phenylpyrazolo[1,5-a]pyridine-3-carboxamide], the IC50 in series [1] is 11 nM; in series [2] it was more than 10000 nM; in series [3], 17 nM.

As for `NC(=O)Nc1cnn2ccc(N3C[C@@H](F)C[C@@H]3c3cccc(F)c3)cc12` [Example X-23, 1-(5-((2R,4S)-4-fluoro-2-(3-fluorophenyl)pyrrolidin-1-yl)pyrazolo[1,5-a]pyridin-3-yl)urea], the IC50 in series [1] is 154 nM; in series [2], more than 10000 nM; in series [3], 176 nM.

Take `NC(=O)c1cnn2ccc(N3C[C@H](O)C[C@@H]3c3cccc(F)c3)cc12` [Example X-24, 5-[(2R,4R)-2-(3-fluorophenyl)-4-hydroxypyrrolidin-1-yl]pyrazolo[1,5-a]pyridine-3-carboxamide]: the IC50 in series [1] is 395 nM; in series [2] it was more than 10000 nM; in series [3], 119 nM.

Consider `N#C[C@H]1C[C@H](c2cccc(F)c2)N(c2ccn3ncc(C(N)=O)c3c2)C1` [Example X-25, 5-((2R,4S)-4-cyano-2-(3-fluorophenyl)pyrrolidin-1-yl)pyrazolo[1,5-a]pyridine-3-carboxamide], for which the IC50 in series [1] was 125 nM; in series [2], more than 10000 nM; in series [3], 58 nM.

Turning to `NC(=O)c1cnn2ccc(N3C[C@@H](C(N)=O)C[C@@H]3c3cccc(F)c3)cc12` [Example X-26, 5-((2R,4S)-4-carbamoyl-2-(3-fluorophenyl)pyrrolidin-1-yl)pyrazolo[1,5-a]pyridine-3-carboxamide], the values for the IC50 in series [1], in series [2] and in series [3] were 443 nM, more than 10000 nM and 232 nM, respectively.

On to `N#Cc1cc(F)cc([C@@H]2C[C@H](F)CN2c2ccn3ncc(C(N)=O)c3c2)c1` [Example X-27], for which the IC50 in series [1], in series [2] and in series [3] was more than 10000 nM throughout.

Regarding `Cc1ccc(C)c(C2CCCN2c2ccn3ncc(C(N)=O)c3c2)c1` (stereo not shown) [Example X-28], the IC50 in series [1] is 2140 nM; in series [2], more than 10000 nM; in series [3], 1090 nM.

`CN1CCN(c2ccn3ncc(C(N)=O)c3c2)C(c2ccccc2)C1` (stereo not shown) [Example X-29]: the IC50 in series [1], in series [2] and in series [3] was more than 10000 nM throughout.
